Experimental data taken from patent US9884012B2, “Use of PEDF-derived polypeptides for promoting muscle or tendon regeneration or arteriogenesis” (MacKay Memorial Hospital, priority 2012, dated 2018).
Marks after values point to notes of the source that are not given here.

Tests used:
[1] = system: ischemic hindlimbs; assay: hindlimb ischemia model, laser Doppler perfusion imaging of limb blood perfusion; assay type: in vivo, C57BL/6 wild-type mice
Method: (§1) 6-week-old female C57BL/6 wild-type mice were anesthetized by an intraperitoneal injection of a mixture of zoletil (6 mg/kg) and xylazine (3 mg/kg). Hair was removed from the hindquarter with a depilating cream. To establish hindlimb ischemia, unilateral external iliac and femoral arteries and veins were ligated, cut, and excised. After surgery, the mice were randomly assigned to several experimental groups (n=6, each group) and treated as follows. In the blank control group, the mice were treated with 50 μl of blank alginate gel, whereas in the bolus control group, the mice received the bolus formulation containing 29-mer. In the PEDF peptide/alginate gel treatment groups, the mice received 50 μl of the sustained-release formulation, which comprised either 29-mer, 24-mer, or 20-mer. Additionally, in a PEDF 18-mer control group, mice were treated with a sustained-release formulation containing a PEDF 18-mer peptide. Treatments were applied by way of a single intramuscular injection to the gracilis muscle immediately after femoral artery and vein excision operation. The incision was closed after the wound was irrigated with sterile saline.
A laser Doppler perfusion imaging (LDPI) analyzer (Moor Instruments, USA) was used to quantify hindlimb blood perfusion before surgery (pre OP), immediately after surgery (post OP), and over time after surgery. To minimize vasoconstriction by anesthetic heat loss, animals were kept on a heating plate at 37° C. for 5 min before measurement. Representative LDPI images illustrating the blood perfusion of ischemic hindlimbs over a time period of 4 weeks were provided in FIG. 2 in which dark blue color represents low blood flow. Blood perfusion is expressed as LDPI index representing the ratio of operated (ischemic) versus non-operated (non-ischemic) limb blood flow of the same mouse, and the results were summarized in FIG. 3 and Table 1 (n 6).

[2] = system: tibialis anterior muscle; assay: hindlimb ischemia model, tibialis anterior muscle necrosis/fibrosis and centrally nucleated fibers; assay type: in vivo, C57BL/6 wild-type mice; conditions: two weeks after surgery, sustained-release formulation (Bolus: bolus 29-mer)
Method: The gracilis, adductor magnus, soleus, and tibialis muscles were fixed in 4% paraformaldehyde, dehydrated with graded ethanol series, and paraffinized. Fixed samples were de-paraffinized in xylene and rehydrated in a graded series of ethanol. Tissues were sliced into 5-μm sections. General histology was performed using H&E dye.
To ascertain the number of centrally nucleated muscle fibers, sections were stained with H&E and then photographed as described above. At least 100 stained fibers were randomly chosen from each photo. Muscle fibers were judged centrally nucleated if one or more nuclei were not located at the periphery of the fiber. The data were expressed as a % of the total number of muscle fibers counted. Results were evaluated from 6 sections per muscle section, and 10 mice at each group.
as §1
In most hindlimb ischemia models, tissue necrosis generally occurs in the muscles below the knee. For example, tibialis anterior muscle, which is distant to the gracilis muscle where the treatment was administered, often undergoes extensive necrosis with regeneration after femoral artery excision. The intensity of Masson's trichrome blue color staining depended on the content of collagen fibers in the investigated tissue, and fibrosis is the result of necrosis. […] Results from representative samples are illustrated in FIGS. 4A and 4B.
Statistical analyses regarding injured area (necrotic area+fibrotic area) and numbers of centrally nucleated fibers were also performed at two weeks after the surgery, and the results were summarized in Table 2. The injured area is expressed as the percent of total stained area (%), and the centrally nucleated fibers is expressed as the total number of muscle fibers counted (%).

[3] = system: adductor magnus muscle arterioles; assay: hindlimb ischemia model, arteriole density (α-SMA) in adductor magnus muscle; assay type: in vivo, C57BL/6 wild-type mice; conditions: two weeks after surgery, sustained-release formulation (Bolus: bolus 29-mer)
Method: The small artery densities (α-SMA positive cells surrounding the whole circumference of the vessel) were measured and images were taken from 10 randomly-selected areas of adductor magnus muscle (200× magnification) in each sample, and blinded quantification was performed in triplicate by manually counting within each section; values from five sections were then averaged and expressed as arteriole density per mm^2.
as §1
To investigate the arteriogenic effect of the present sustained-release formulation, adductor magnus muscles (located at the same level as femoral artery excision and in which arteriogenesis responsible for establishing collateral circulation is expected to be found) were harvested from animals in each experimental condition, two weeks after the surgery. Arterioles in muscle cross sections were identified by immunohistological staining for vascular smooth muscle cells (α-SMA; brown), and nuclei were labeled with hematoxylin; representative photographs were provided in FIG. 5. Quantitative analysis was also performed and the results were summarized in Table 3, and the data were expressed as α-SMA-positive arterioles per mm^2 in the peri-injury region.

[4] = system: aortic ring explants; assay: rat aortic ring sprouting assay (ex vivo neovessel sprouting); assay type: cell-based; conditions: aortic rings cultured with PEDF peptide, in words
[5] = system: aortic ring explants; assay: as above; assay type: cell-based; conditions: day 4, 50 ng/ml PEDF peptide, 50 ng/ml VEGF-A, 20 ng/ml FGF-2, MCDB131, 1% FBS, Matrigel
Method: To further confirm the neovessel development promoted by PEDF peptides, rat aortic ring sprouting assay was performed. Thoracic aortas were removed from euthanized rats and gently stripped of peri-aortic fibroadipose tissue. Aortas were sectioned into about 2-mm length rings, which were then embedded in a growth factor-reduced Matrigel. Gels containing the aortic rings were polymerized in 12-well plates incubated at 37° C. for 30 minutes. 1 ml of MCDB131 medium supplemented with 100 units/ml penicillin and […] streptomycin, 1% FBS, and a supplemental agent (50 ng/ml VEGF-A, 20 ng/ml FGF-2, or 50 ng/ml 29-mer, 24-mer, 20-mer, Mo 29-mer, Mo 20-mer, 25-mer, or 18-mer) were added to the Matrigel-containing explants. The cultures were propagated at 37° C. in a humidified incubator for up to 4 days, with media changes every other day. Neovessel sprouting was assessed until day 4 using an inverted microscope platform (Leica) with bright-field optics; representative photographs were provided in FIG. 6. Quantification of neovessel sprouting was assessed using Image-Pro Plus 6.0 software (Dendrites program). The experiment was repeated in triplicate.

[6] = system: tendon stem cells (TSCs); assay: TSCs proliferation assay (BrdU labeling) in vitro; assay type: cell-based, New Zealand White rabbits; conditions: TSCs passage 4; 50 nM peptide, 5% FBS, 24 hours; BrdU pulse-labeling
Method: New Zealand White rabbits (6-8 months old, 3.0-4.0 kg) were used in this study. Achilles tendons were removed from the rabbits by cutting through their bony attachments. The tendon sheath was stripped away and the core portion of the tendons was minced into small fragments. Each 100 mg of fragment was then digested in a solution containing 3 mg/mL of type I collagenase and 4 mg/mL of dispase in 1 ml Dulbecco's Modified Eagle Medium (DMEM-high glucose) at 37° C. for 2 hours. The resultant cell suspension was centrifuged at 1,000 rpm for 15 minutes to obtain a cell pellet which was then resuspended in a growth medium consisting of DMEM supplemented with 10% heat inactivated fetal bovine serum (FBS), 100 μM 2-mercaptoethanol, and 100 U/ml penicillin and 100 μg/ml streptomycin. For passage, near-confluent cells were harvested with 0.25% trypsin and then 1×10^5 subcultured cells were further cultured in medium.
The TSCs at passage 4 were seeded at gelatin-coated slide in a 6-well plate at a density of 2×10^5 cells per well and cultured in growth medium (DMEM+10% FBS) for 24 hours before being replaced by a basal growth medium with 5% FBS only (control group) or with 5% FBS plus an additional 50 nM of PEDF-derived peptide (i.e., 29-mer, 24-mer, 20-mer, 18-mer, Mo 29-mer, or Mo 20-mer) for 24 hours. For BrdU labeling assay, BrdU (final concentration, 10 μM) was added to the culture for 4 hours. After fixing with 4% paraformaldehyde, cells were exposed to cold methanol for 2 minutes, and then treated with 1 N HCl at RT for 1 hour before performing immunofluorescence. The phenotype of passage 4 TSC was determined by immunocytochemistry of nucleostemin and type I collagen. Almost all of expanded TSCs were nucleostemin and type I collagen-double positive cells.
It has been reported that during the tendon healing process, tendon stem cells (TSCs) would proliferate and differentiate into tenocytes. To investigate whether present PEDF peptides would induce the proliferation of TSCs in vitro, tendons stem cells were isolated and cultured as described in the “Materials and Methods” section. The purity of TSCs was confirmed by a TSC marker, nucleostemin, as well as the expression of type I collagen by TSCs; together, these analyses indicated a TSC purity of near 100% (data not shown). The proliferation of TSCs was confirmed by BrdU pulse-labeling for 2 hours. Quantitative analysis of the level of BrdU-positive cells was performed as described above, and the results were summarized in Table 8.

EQRTESIIHRALYYDLIS [18-mer, control PEDF peptide without the SLGA residues, reference compound]
Ischemic/Non-ischemic Perfusion Ratio (%) 7 days ([1]; 7 days after surgery, 50 μl sustained-release alginate gel formulation, 10 μM peptide (Bolus: bolus formulation of 29-mer), single intramuscular injection to gracilis muscle): 23.8 ± 4.5% | Ischemic/Non-ischemic Perfusion Ratio (%) 14 days ([1]; 14 days after surgery, sustained-release formulation (Bolus: bolus 29-mer), single intramuscular injection): 30.3 ± 0.94% | Ischemic/Non-ischemic Perfusion Ratio (%) 21 days ([1]; 21 days after surgery, sustained-release formulation (Bolus: bolus 29-mer), single intramuscular injection): 46.8 ± 4.3% | Ischemic/Non-ischemic Perfusion Ratio (%) 28 days ([1]; 28 days (four weeks) after surgery, sustained-release formulation (Bolus: bolus 29-mer), single intramuscular injection): 52.8 ± 7.4% | Ischemic/Non-ischemic Perfusion Ratio (%) Pre OP ([1]; before surgery (baseline), LDPI): 104.5 ± 2.5% | Ischemic/Non-ischemic Perfusion Ratio (%) Post OP ([1]; immediately after surgery, LDPI): 7.5 ± 0.67% | blood perfusion as compared with blank control ([1]; over 4 weeks after surgery, in words): did not exhibit improved blood perfusion | Centrally nucleated fibers (%) [2]: 20.5 ± 3.3% | Injured Area (%) (necrotic area + fibrotic area, percent of total stained area) [2]: 78.5 ± 5.1% | Arteriole Density per mm^2 (α-SMA-positive arterioles) [3]: 4.0 ± 0.58 per mm^2 | neovessel phenotype by dual immunofluorescence (α-SMA / isolectin B4) [4]: barely detected

FGF2: well-known angiogenic factor used as positive control, 20 ng/ml [reference compound]
Neovessel Sprouting Fold [5]: 3.5* fold of untreated aortic ring | Neovessel Sprouting Fold ([5]; listed as FGF-2): ~3.5 fold of untreated aortic ring

SLGAEHRTESVIHRALYYDL [Mo 20-mer, synthetic peptide derived from mouse PEDF]
Neovessel Sprouting Fold [5]: 6.4* fold of untreated aortic ring | BrdU Labeling Index (%) [6]: 31.8 ± 3.1 %

SLGAEHRTESVIHRALYYDLITNPDIHST [Mo 29-mer, synthetic peptide derived from mouse PEDF]
Neovessel Sprouting Fold [5]: 6.1* fold of untreated aortic ring | BrdU Labeling Index (%) [6]: 33.2 ± 6.6 %
